Data set [1] in a line: LD50, Probit method. As to conditions: in vivo, iv. The procedure: Next, LD50 of representative examples of the compounds of the present invention is shown in Table 3 wherein LD50 was determined in accordance with the Probit method.
In data set [2] the test system is Serratia marcescens 274. As to the kind of experiment: Protection against systemic bacterial infection in ICR mice (ED50). It counts as in vivo. Conditions: 168 h. The procedure: (§1) Protection ability against systemic bacterial infection was determined as follows. An aqueous suspension of test bacteria was intraperitoneally injected into 10 four week old ICR mice. One hour after the infection, test compounds were intravenously administered. The number of surviving mice was counted 1 week after injection to determine the dose at which 50% of the test animals were alive (ED50 : mg/kg).

Data set [3] concerns Pseudomonas aeruginosa 34. The description is as above. It counts as in vivo. As to conditions: 168 h. Here is the method:
as §1

Data set [4] concerns Staphylococcus aureus 4. The description is as above. It is filed as in vivo. As to conditions: iv, 168 h, Staphylococcus aureus 4 (methicillin-resistant strain), i.p. infection, compound i.v. one hour after infection, survival 1 week. The procedure:
as §1

Data set [5] relates to Klebsiella pneumoniae IFO 3317. The data set can be described thus: Antibacterial activity in vitro (MIC), agar plate dilution method. It counts as cell-based. Here is the method:
(§2) Antibacterial activity in vitro was determined in accordance with the agar plate dilution method.
(§3) A platinum loop each of test bacteria (10^6 cells/ml), cultured in Mueller Hinton broth, was inoculated on Mueller Hinton agar plates which contained test compounds at various concentrations. After cultivating at 37° C. for 20 hours, the minimum inhibitory concentration (MIC μg/ml) was determined.

The test system of data set [6] is Serratia marcescens IFO 3759. The description is as above. It counts as cell-based. Here is the method:
as §2, §3

Data set [7] relates to Staphylococcus aureus 209P. Described as above. Conditions: Mueller Hinton agar, 10^6 cells/ml, 37° C., 20 hours. It is filed as cell-based. The procedure: as §2, §3
The test system of data set [8] is Escherichia coli NIHJ JC 2. The data set is described as above. It counts as cell-based. As to conditions: NIHJJC2, Mueller Hinton agar, 10^6 cells/ml, 37° C., 20 hours. Here is the method:
as §2, §3

Data set [9] has as its system Klebsiella pneumoniae IFO 3317. The data set can be described thus: Protection against systemic bacterial infection in ICR mice (ED50). It is filed as in vivo. Conditions: IFO3317, iv, 168 h. The procedure: as §1
Data set [10] concerns Enterobacter 8. Described as above. It counts as in vivo. As to conditions: 168 h. The procedure: as §1
For data set [11], the system named is Escherichia coli 67. The data set is described as above. It is filed as in vivo. Conditions: iv, 168 h, Escherichia coli 67, i.p. infection, compound i.v. one hour after infection, survival 1 week. Here is the method: as §1
In data set [12] the test system is Staphylococcus aureus 58. Described as above. It is filed as in vivo. As to conditions: iv, 168 h, Staphylococcus aureus 58 (methicillin-resistant strain), i.p. infection, compound i.v. one hour after infection, survival 1 week. Here is the method: as §1
The subject of data set [13] is Pseudomonas aeruginosa IFO 3445. The description is as above. It counts as in vivo. Conditions: IFO3445, iv, 168 h. The procedure:
as §1

Data set [14] has as its system Pseudomonas aeruginosa 34. As to the kind of experiment: Antibacterial activity in vitro (MIC), agar plate dilution method. It counts as cell-based. The procedure: as §2, §3
Where [15] appears, read: iv, Serratia marcescens 274, i.p. infection, ICR mice, compound i.v. one hour after infection, survival 1 week, read-out: ED50.
[16] abbreviates: iv, Pseudomonas aeruginosa 34, i.p. infection, ICR mice, compound i.v. one hour after infection, survival 1 week, read-out: ED50.
The mark [17] stands for this setting: IFO3317, Klebsiella pneumoniae IFO 3317, Mueller Hinton agar, 10^6 cells/ml, 37° C., 20 hours, read-out: MIC.
Setting [18] is: IFO3759, Serratia marcescens IFO 3759, Mueller Hinton agar, 10^6 cells/ml, 37° C., 20 hours, read-out: MIC.
The mark [19] stands for this setting: Klebsiella pneumoniae IFO 3317, i.p. infection, ICR mice, compound i.v. one hour after infection, survival 1 week, read-out: ED50.
[20] abbreviates: iv, Enterobacter 8, i.p. infection, ICR mice, compound i.v. one hour after infection, survival 1 week, read-out: ED50.
Where [21] appears, read: Pseudomonas aeruginosa IFO 3445, i.p. infection, ICR mice, compound i.v. one hour after infection, survival 1 week, read-out: ED50.
Where [22] appears, read: Pseudomonas aeruginosa 34, Mueller Hinton agar, 10^6 cells/ml, 37° C., 20 hours, read-out: MIC.

Converted amounts (≈) assume the structure as drawn. Where two headings read alike, the source gives them in different places.

Molecule `Cc1cc(SCC2=C(C(=O)O)N3C(=O)[C@@H](NC(=O)/C(=N\OCc4cc(O)c(O)c(C(=O)O)c4)c4csc(N)n4)[C@H]3SC2)n2nc(C(=O)O)nc2n1` [Compound 3, (6R,7R)-7-[2-(2-amino-4-thiazolyl)-2-[Z-[(3-carboxy-4,5-dihydroxyphenyl)methyl]oxyimino]acetamido]-3-[(2-carboxy-5-methyl-s-triazolo[1,5-a]pyrimidin-7-yl)thiomethyl]-8-oxo-5-thia-1-azabicyclo[4.2.0]oct-2-ene-2-carboxylic acid] yielded a 50% lethal dose (LD50) in [1] of over 4000 mg/kg. For the same molecule, the ED50 in [2] (setting [15]) was found to be 0.72 mg/kg; in data set [3] (setting [16]), 46.8 mg/kg; in data set [4], 2.08 mg/kg. Also, the minimal inhibitory concentration (MIC) in [5] (setting [17]) was 0.1 µg/mL (≈ 0.132 µM); in data set [6] (setting [18]), 0.78 µg/mL (≈ 1.03 µM); in [7], 6.25 µg/mL (≈ 8.25 µM); in [8], 0.78 µg/mL (≈ 1.03 µM).

In turn, `Cc1cc(SCC2=C(C(=O)O)N3C(=O)[C@@H](NC(=O)/C(=N\OCc4c(C(=O)O)ccc(O)c4O)c4csc(N)n4)[C@H]3SC2)n2nc(C(=O)O)nc2n1` [Compound 1, (6R,7R)-7-[2-(2-amino-4-thiazolyl)-2-[Z-[(6-carboxy-2,3-dihydroxyphenyl)methyl]oxyimino]acetamido]-3-[(2-carboxy-5-methyl-s-triazolo[1,5-a]pyrimidin-7-yl)thiomethyl]-8-oxo-5-thia-1-azabicyclo[4.2.0]oct-2-ene-2-carboxylic acid] came in with an LD50 in data set [1] of over 4000 mg/kg. Besides, the ED50 was found to be 0.55 mg/kg in data set [9] (setting [19]); 1.28 mg/kg in data set [10] (setting [20]); 1.59 mg/kg in data set [11]; 0.5 mg/kg in data set [2] (setting [15]); 15.9 mg/kg in [12]; 52 mg/kg in [13] (setting [21]). In addition, the MIC was under 0.05 µg/mL in [5] (setting [17]); 0.39 µg/mL (≈ 0.515 µM) in data set [6] (setting [18]); 6.25 µg/mL (≈ 8.25 µM) in [7]; 0.2 µg/mL (≈ 0.264 µM) in data set [14] (setting [22]); 0.78 µg/mL (≈ 1.03 µM) in data set [8].

As for `Cc1cc(SCC2=C(C(=O)O)N3C(=O)[C@@H](NC(=O)/C(=N\OCc4ccc(O)c(O)c4C(=O)O)c4csc(N)n4)[C@H]3SC2)n2nc(C(=O)O)nc2n1` [Compound 4, (6R,7R)-7-[2-(2-amino-4-thiazolyl)-2-[Z-[(2-carboxy-3,4-dihydroxyphenyl)methyl]oxyimino]acetamido]-3-[(2-carboxy-5-methyl-s-triazolo[1,5-a]pyrimidin-7-yl)thiomethyl]-8-oxo-5-thia-1-azabicyclo[4.2.0]oct-2-ene-2-carboxylic acid], the LD50 in data set [1] is over 4000 mg/kg. Moreover, the median effective dose (ED50) in [2] (setting [15]) worked out at 0.97 mg/kg; in data set [3] (setting [16]), 50.6 mg/kg; in data set [4] it was 3.35 mg/kg. The MIC in [5] (setting [17]) was 0.05 µg/mL (≈ 0.066 µM); in data set [6] (setting [18]), 0.39 µg/mL (≈ 0.515 µM); in [7], 3.13 µg/mL (≈ 4.13 µM); in data set [8], 0.39 µg/mL (≈ 0.515 µM).

Regarding `Cc1cc(SCC2=C(C(=O)O)N3C(=O)[C@@H](NC(=O)/C(=N\OCc4cc(C(=O)O)cc(O)c4O)c4csc(N)n4)[C@H]3SC2)n2nc(C(=O)O)nc2n1` [Compound 2, (6R,7R)-7-[2-(2-amino-4-thiazolyl)-2-[Z-[(5-carboxy-2,3-dihydroxyphenyl)methyl]oxyimino]acetamido]-3-[(2-carboxy-5-methyl-s-triazolo[1,5-a]pyrimidin-7-yl)thiomethyl]-8-oxo-5-thia-1-azabicyclo[4.2.0]oct-2-ene-2-carboxylic acid], the 50% lethal dose (LD50) in data set [1] was over 4000 mg/kg. The 50% effective dose (ED50) in [9] (setting [19]) was found to be 0.34 mg/kg; in data set [10] (setting [20]), 1.31 mg/kg; in data set [11], 1.1 mg/kg; in [2] (setting [15]), 0.55 mg/kg; in [12], 9.65 mg/kg; in data set [13] (setting [21]) it was 33.7 mg/kg. The MIC in data set [5] (setting [17]) came out at 0.05 µg/mL (≈ 0.066 µM); in data set [6] (setting [18]), 0.1 µg/mL (≈ 0.132 µM); in [7], 6.25 µg/mL (≈ 8.25 µM); in data set [14] (setting [22]), 0.2 µg/mL (≈ 0.264 µM); in data set [8], 0.39 µg/mL (≈ 0.515 µM).

As for `Cc1cc(SCC2=C(C(=O)O)N3C(=O)[C@@H](NC(=O)/C(=N\OCc4ccc(C(=O)O)c(O)c4O)c4csc(N)n4)[C@H]3SC2)n2nc(C(=O)O)nc2n1` [Compound 5, (6R,7R)-7-[2-(2-amino-4-thiazolyl)-2-[Z-[(4-carboxy-2,3-dihydroxyphenyl)methyl]oxyimino]acetamido]-3-[(2-carboxy-5-methyl-s-triazolo[1,5-a]pyrimidin-7-yl)thiomethyl]-8-oxo-5-thia-1-azabicyclo[4.2.0]oct-2-ene-2-carboxylic acid], the LD50 in data set [1] is over 4000 mg/kg. Moreover, the values for the median effective dose (ED50) in data set [2] (setting [15]), in [3] (setting [16]) and in data set [4] were 0.75 mg/kg, 81.2 mg/kg and 4.21 mg/kg, respectively. Moreover, the minimal inhibitory concentration (MIC) was determined as 0.05 µg/mL (≈ 0.066 µM) in [5] (setting [17]), 0.78 µg/mL (≈ 1.03 µM) in [6] (setting [18]), 3.13 µg/mL (≈ 4.13 µM) in data set [7] and 0.78 µg/mL (≈ 1.03 µM) in data set [8].

In the case of `Cn1nnnc1SCC1=C(C(=O)O)N2C(=O)[C@@H](NC(=O)[C@H](O)c3ccccc3)[C@H]2SC1` [CMD, Cefamandole, reference compound], the values for the ED50 in data set [12] and in data set [4] were 18.9 mg/kg and 5.94 mg/kg, respectively.

For `CC(C)(O/N=C(\C(=O)N[C@@H]1C(=O)N2C(C(=O)[O-])=C(C[n+]3ccccc3)CS[C@H]12)c1csc(N)n1)C(=O)O` [CAZ, Ceftazidime, reference compound], the ED50 in data set [9] (Klebsiella pneumoniae) was found to be 1.73 mg/kg; in data set [10] (Enterobacter, 8, iv), 4.36 mg/kg; in [11], 2.8 mg/kg; in data set [2] (Serratia marcescens, 274, iv) it was 3.62 mg/kg; in data set [3] (Pseudomonas aeruginosa, 34, iv), 123 mg/kg; in [13] (Pseudomonas aeruginosa), 230 mg/kg. For the same molecule, the minimal inhibitory concentration (MIC) in data set [5] (Klebsiella pneumoniae, IFO3317, 20 h) was under 0.05 µg/mL; in data set [6] (Serratia marcescens, IFO3759, 20 h) it was under 0.05 µg/mL; in [14] (Pseudomonas aeruginosa, 34, 20 h), 3.13 µg/mL (≈ 5.73 µM); in data set [8], 0.2 µg/mL (≈ 0.366 µM).

Broadly, the LD50 is the dose at which mortality reaches 50%. Lower therefore signals greater toxicity. Broadly, the ED50 is the dose at which the effect has come halfway, by size or by number of responders. In general, MIC refers to the lowest concentration found to suppress growth.

For the origin of these results see US4880798A, “Cephalosporin derivatives” (Mochida Pharmaceutical Co., Ltd., priority 1986, dated 1989).
